Key:
[1] = biological target: SARS-CoV-2 M^pro protease (Severe acute respiratory syndrome coronavirus 2 (2019-nCoV) (SARS-CoV-2), UniProt P0DTD1); assay: biochemical; format: biochemical; details: M^pro 75 nM, substrate 10 μM
M^pro = M^pro (Severe acute respiratory syndrome coronavirus 2 (2019-nCoV) (SARS-CoV-2), UniProt P0DTD1); format: binding; details: steady-state analysis, 25° C.

Compound	IC50 ([1]; Tables 5B-5E) [nM]	Kd (M^pro) [nM]	IC50 ([1]; Table 5A) [nM]
O=C1NC2(CC(c3ccccc3Cl)C2)C(=O)N1c1cncc2cccnc12 (centres unmarked) [Compound 50, 2-(2-chlorophenyl)-7-(1,6-naphthyridin-8-yl)-5,7-diazaspiro[3.4]octane-6,8-dione]	105	28	–
O=C1NC2(CC(c3ccccc3Cl)C2)C(=O)N1c1cncc2c(F)c(F)c(F)cc12 (single isomer, unassigned) [Compound 59, 2-(2-chlorophenyl)-7-(6,7,8-trifluoroisoquinolin-4-yl)-5,7-diazaspiro[3.4]octane-6,8-dione]	6600	250	–
O=C1NC2(CC(c3ccccc3Cl)C2)C(=O)N1c1cncc2cnccc12 (centres unmarked) [Compound 51, 2-(2-chlorophenyl)-7-(2,7-naphthyridin-4-yl)-5,7-diazaspiro[3.4]octane-6,8-dione]	141	29	–
O=C1NC2(CC(c3ccccc3Cl)C2)C(=O)N1c1cccnc1F (centres unmarked) [Compound 62, 2-(2-chlorophenyl)-7-(2-fluoropyridin-3-yl)-5,7-diazaspiro[3.4]octane-6,8-dione]	201	36	–
O=C1NC2(CC(c3ccccc3Cl)C2)C(=O)N1c1cncc2cccc(F)c12 (centres unmarked) [Compound 53, 2-(2-chlorophenyl)-7-(5-fluoroisoquinolin-4-yl)-5,7-diazaspiro[3.4]octane-6,8-dione]	253	42	–
O=C1NC2(CC(c3ccccc3Cl)C2)C(=O)N1c1cncc2c(F)c(F)c(F)cc12 (single isomer, unassigned) [Compound 60, 2-(2-chlorophenyl)-7-(6,7,8-trifluoroisoquinolin-4-yl)-5,7-diazaspiro[3.4]octane-6,8-dione]	1370	364	–
O=C1NC2(CC(C3CCC3)C2)C(=O)N1c1cncc(F)c1 (centres unmarked) [Compound 13, 2-cyclobutyl-7-(5-fluoropyridin-3-yl)-5,7-diazaspiro[3.4]octane-6,8-dione]	–	66000 ± 14000	6700

Source: US20240208970A1, “SUBSTITUTED HYDANTOIN COMPOUNDS, METHODS FOR PREPARATION THEREOF AND USE THEREOF IN THE TREATMENT AND/OR PREVENTION OF A CORONA VIRUS DISEASE” (priority 2021, published 2024)
